The record followed here is PMC2267459, “Efficient display of active lipase LipB52 with a Pichia pastoris cell surface display system and comparison with the LipB52 displayed on Saccharomyces cerevisiae cell surface” (BMC Biotechnology, 2008).

This assay deals with T1, LipB52 (Pseudomonas fluorescens, UniProt Q6GX93).
T1 construct: lipase fused at its N-terminus to the C-terminus of the FLO flocculation domain (Saccharomyces cerevisiae ATCC 60715) as display anchor
T1 sequence (Q6GX93 1-617): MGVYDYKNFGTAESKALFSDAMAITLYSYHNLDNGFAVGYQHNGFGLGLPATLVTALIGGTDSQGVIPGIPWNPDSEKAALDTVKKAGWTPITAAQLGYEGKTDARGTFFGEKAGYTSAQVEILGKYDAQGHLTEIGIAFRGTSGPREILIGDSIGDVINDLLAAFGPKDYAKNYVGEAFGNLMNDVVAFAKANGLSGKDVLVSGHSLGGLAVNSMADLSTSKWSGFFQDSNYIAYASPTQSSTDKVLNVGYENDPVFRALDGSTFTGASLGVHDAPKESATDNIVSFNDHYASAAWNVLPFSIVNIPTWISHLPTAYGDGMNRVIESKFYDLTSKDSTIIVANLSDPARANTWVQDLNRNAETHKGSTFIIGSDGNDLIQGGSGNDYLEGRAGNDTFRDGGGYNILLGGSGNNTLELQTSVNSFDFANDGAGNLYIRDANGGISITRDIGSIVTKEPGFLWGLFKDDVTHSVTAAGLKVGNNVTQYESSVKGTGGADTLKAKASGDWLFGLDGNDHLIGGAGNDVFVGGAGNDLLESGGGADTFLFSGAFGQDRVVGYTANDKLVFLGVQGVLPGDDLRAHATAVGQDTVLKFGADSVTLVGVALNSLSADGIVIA
Briefly: p-nitrophenol release by displayed whole cells. In kind it is cell-based. The note with it: yeast surface-displayed (whole-cell) enzyme.

`CCCCCCCCCC(=O)Oc1ccc([N+](=O)[O-])cc1` [C10, p-nitrophenol-caprate]: the “p-nitrophenol release by displayed whole cells” value (pH 8.0, 40 °C) is “the optimum substrate was p-nitrophenol-caprate (C10)”.

As to `CCCCCCCCCCCC(=O)Oc1ccc([N+](=O)[O-])cc1` [C12, p-nitrophenol ester (C12)], the “p-nitrophenol release by displayed whole cells” value (conditions not stated for this substrate) was “exhibited evident hydrolysis activity towards the p-nitrophenol ester”.
